These results are taken from patent US20240083885A1, “COMPOSITIONS AND METHODS FOR INHIBITING M PRO PROTEASE ACTIVITY AND FOR PREVENTING AND TREATING SARS-COV-2 INFECTION” (priority 2020, published 2024).

Values joined by “and” are separate entries in the source; they are usually repeats but may differ in a detail not shown here. Identical values can stand only once. Like-named read-outs stand apart in the source and are kept apart here. Where only a bound is given, the exact number is not on record here.

Series [1] deals with SARS-CoV-2. Description: microbe, parasite or virus in culture. The format is cell-based. The following applies: for EC50: Severe acute respiratory syndrome coronavirus 2, Vero C1008.
The target of series [2] is T1, SARS-CoV-2 M^pro (Severe acute respiratory syndrome coronavirus 2 (2019-nCoV) (SARS-CoV-2), UniProt P0DTD1). Kind of series: biochemical.
Series [3] concerns the target T1, SARS-CoV-2 M^pro. Description: biochemical. This is another data set of the same source.
The nature of series [4]: in vitro. The following applies: African green monkey.
For series [5], the target named is T1, SARS-CoV-2 M^pro. Description: cell-based.
For series [6], the system named is SARS-CoV-2. Kind of series: microbe, parasite or virus in culture. The format is cell-based. Particulars: Severe acute respiratory syndrome coronavirus 2; read-out: antiviral EC50 against SARS-CoV-2 in Caco2-hACE2 cells.
Series [7] can be described thus: in vitro. Particulars: human, CC50 in Calu-3 cells.
For a further series, the system named is Vero E6 cells. Description: Cytotoxicity in Vero E6 cells (neutral red uptake). Particulars: read-out: CC50 in Vero E6 cells.
Series [8] concerns the target T2, Cathepsin B (Homo sapiens (Human), UniProt P07858). Kind of series: Host protease FRET-based enzymatic assay: cathepsin B. The format is biochemical. The protocol:
(§1) Enzymatic reactions against host proteases (Calpain I, Cathepisn K, Cathespsin L, Caspase-3 and Trypisn) were carried out as previously described (see, Xia, Z.; et al., ACS Pharmacol. Transl. Sci. 2021). Cathepsin B assay reaction was carried out as follows: Cathepsin B (catalog no. CTB-H5222) was diluted into 100 nM final concentration in a buffer containing 20 mM sodium acetate pH5.5, 1 mM EDTA and 2 mM DTT and the mixture was incubated for 30 min at 30° C. Activated Cathepsin B was further diluted to 500 pm in the reaction buffer (100 mM MES pH6.0, 1 mM EDTA, 2 mM DTT and 0.01% TWEEN 20).

For another series, the system named is trypsin. Description: Host protease FRET-based enzymatic assay: trypsin. Format: biochemical.
Series [9] addresses T1, SARS-CoV-2 M^pro. The format is binding. Particulars: native mass spectrometry, covalent adduct.
In series [10] the target is T3, Cathepsin L (Homo sapiens (Human), UniProt P07711). Kind of series: Host protease FRET-based enzymatic assay: cathepsin L. The format is biochemical. As for the experimental part: The cathepsin L enzymatic assay was carried out as follows: human liver cathepsin L (EMD Millipore 219402) was activated by incubating at reaction buffer (20 mM sodium acetate, 1 mM EDTA and 5 mM DTT pH5.5) for 30 min at 30° C. Upon activation, the assay was assembled in 96-well plates with 100 μl of 300 pM cathepsin L protein in cathepsin L reaction buffer. Then 1 μl testing compound at various concentrations was added to each well and incubated at 30° C. for 30 min. The enzymatic reaction was initiated by adding 1 μl of 100 μM FRET substrate Z-Phe-Arg-AMC (the final substrate concentration is about 1 μM). The reaction was monitored in a Cytation 5 image reader with filters for excitation at 360/40 nm and emission at 460/40 nm at 30° C. for 1 hr. The IC50 values were calculated as described in above section.
as §1

The target of the next series is cathepsin K (Homo sapiens (Human), UniProt P43235). Format: biochemical.
The target in another series is calpain I (Homo sapiens (Human), UniProt P07384). Description: Host protease FRET-based enzymatic assay: calpain I. Format: biochemical. The protocol:
as §1

A further series has as its target caspase-3 (Homo sapiens (Human), UniProt P42574). Kind of series: Host protease FRET-based enzymatic assay: caspase-3. The format is biochemical. The protocol:
as §1

In series [11] the target is T2, Cathepsin B. The following applies: cited from earlier work.
Series [12] addresses T3, Cathepsin L. Particulars: cited from earlier work.
The mark [13] stands for this setting: read-out: antiviral EC50 against SARS-CoV-2 in Vero E6 cells.
Setting [14] is: read-out: IC50 against SARS-CoV-2 M^pro.
[15] abbreviates: Vero E6 cells, immunofluorescence assay, read-out: SARS-CoV-2 antiviral assay EC50.
Where [16] appears, read: read-out: SARS-COV-2 antiviral activity using immunofluorescence assay EC50.
[17] abbreviates: read-out: Additional off targets: Cathepsin B IC50.

T3 sequence (P07711 114-333 limits assumed): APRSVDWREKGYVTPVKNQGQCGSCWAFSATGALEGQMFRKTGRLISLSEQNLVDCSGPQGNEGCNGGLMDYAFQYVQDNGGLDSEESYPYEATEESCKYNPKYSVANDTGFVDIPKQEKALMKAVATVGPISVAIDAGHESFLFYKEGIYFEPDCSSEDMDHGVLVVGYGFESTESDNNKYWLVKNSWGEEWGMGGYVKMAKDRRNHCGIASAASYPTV
Chain of caspase-3 (P42574 29-175 limits assumed): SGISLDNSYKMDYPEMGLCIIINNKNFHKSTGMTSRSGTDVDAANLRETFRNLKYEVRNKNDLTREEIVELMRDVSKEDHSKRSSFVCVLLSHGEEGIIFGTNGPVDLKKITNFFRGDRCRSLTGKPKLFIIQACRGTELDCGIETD
Chain of caspase-3 (P42574 176-277 limits assumed): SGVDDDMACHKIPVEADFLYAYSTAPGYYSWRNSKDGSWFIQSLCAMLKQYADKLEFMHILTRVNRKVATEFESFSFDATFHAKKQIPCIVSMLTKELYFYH
Chain of cathepsin K (P43235 115-329 limits assumed): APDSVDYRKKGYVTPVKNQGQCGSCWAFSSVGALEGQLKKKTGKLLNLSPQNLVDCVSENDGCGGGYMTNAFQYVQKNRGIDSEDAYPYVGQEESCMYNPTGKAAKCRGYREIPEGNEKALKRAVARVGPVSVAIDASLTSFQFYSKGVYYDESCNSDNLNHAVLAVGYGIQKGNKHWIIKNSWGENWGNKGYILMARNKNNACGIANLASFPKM

As to `C[C@@H](CCc1ccccc1)NC(=O)[C@@H](c1cccnc1)N(C(=O)C(Cl)Cl)c1ccc(-c2ccccc2)cc1` (single isomer, unassigned) [Jun9-90-4R], the EC50 with SARS-CoV-2 [1] (setting [13]) stood at 1.1 µM; on SARS-CoV-2 M^pro [5], 1.57 µM; in the series with SARS-CoV-2 [6], 1.43 µM. In addition, at SARS-CoV-2 M^pro [2], the kinact/KI came to 867 M⁻¹ s⁻¹. Further, the IC50 at SARS-CoV-2 M^pro [3] (setting [14]) is 0.46 µM. Also, in “in vitro [4]” (CC50 in Vero E6 cells), the CC50 at 5 days is greater than 100 µM.
Regarding `C[C@H](NC(=O)[C@H](c1cccnc1)N(C(=O)CCl)c1ccc(-n2cccc2)cc1)c1ccccc1` (stereo in doubt) [Jun9-57-3S], the CC50 at 5 days is less than 2 µM in “in vitro [7]” and less than 11 µM in the series “in vitro [4]” (CC50 in Vero E6 cells). Besides, the IC50 at SARS-CoV-2 M^pro [3] (setting [14]) is 1.13 µM.
Consider `C[C@H](NC(=O)C(c1cnccn1)N(C(=O)c1c[nH]cn1)c1ccc(-c2ccccc2)cc1)c1ccccc1` (stereo partly drawn) [Jun9-5-2], for which the “Selectivity index SI CC50/EC50” value in the series on SARS-CoV-2 [1] stood at 32.6. Moreover, the EC50 in the series on SARS-CoV-2 [1] (setting [15]) was 4.54 ± 0.69 µM; with SARS-CoV-2 [1] (setting [16]), 9.89 µM; with SARS-CoV-2 [1] (setting [13]), 0.82 to 4.54 µM. At SARS-CoV-2 M^pro [3] (setting [14]), the IC50 stood at 0.67 ± 0.15 µM. Moreover, half-maximal cytotoxicity in “in vitro [4]” (Vero E6 Cytotoxicity CC50 (μM)) (CC50 at 5 days) was put at 148 ± 13.9 µM. Besides, the 50% cytotoxic concentration (CC50) in the series on Vero E6 cells was greater than 100 µM.
Turning to `O=C(NCCCc1ccccc1)C(c1cccnc1)N(C(=O)c1ccco1)c1ccc(-c2ccccc2)cc1` (stereo not drawn) [Jun9-12-2], the “Selectivity index SI CC50/EC50” value in the series with SARS-CoV-2 [1] was greater than 98.0. The EC50 is 2.04 ± 1.08 µM with SARS-CoV-2 [1] (setting [15]), 2.13 µM with SARS-CoV-2 [1] (setting [16]) and 0.82 to 4.54 µM in the series with SARS-CoV-2 [1] (setting [13]). Moreover, at SARS-CoV-2 M^pro [3] (read-out: SARS-COV-2 main protease enzymatic inhibition IC50), the IC50 came to 1.06 µM. In the series “in vitro [4]” (Vero E6 Cytotoxicity CC50 (μM)), this compound had a CC50 at 5 days greater than 200 µM. Moreover, the CC50 in the series with Vero E6 cells is greater than 100 µM.
For the compound `O=C(NC1CCCC1)C(c1cccnc1)N(C(=O)CCl)c1ccc(-c2ccccc2)cc1` (stereo not drawn) [Jun9-55-1, 2-(N-{[1,1′-biphenyl]-4-yl}-2-chloroacetamido)-N-cyclopentyl-2-(pyridin-3-yl)acetamide], the CC50 at 5 days in the series “in vitro [7]” was less than 2 µM; in “in vitro [4]” (CC50 in Vero E6 cells), less than 11 µM.
On to `O=C(NC1CCCCC1)C(c1cccnc1)N(C(=O)CCl)c1ccc(-c2ccccc2)cc1` (stereo not drawn) [Jun9-55-2, N-([1,1′-biphenyl]-4-yl)-2-chloro-N-(2-(cyclohexylamino)-2-oxo-1-(pyridin-3-yl)ethyl)acetamide], for which the CC50 at 5 days was less than 2 µM in “in vitro [7]” and less than 11 µM in the series “in vitro [4]” (CC50 in Vero E6 cells).
As for `O=C(NC1CC1)C(c1cccnc1)N(C(=O)CCl)c1ccc(-c2ccccc2)cc1` (stereo not drawn) [Jun9-57-2, N-([1,1′-biphenyl]-4-yl)-2-chloro-N-(2-(cyclopropylamino)-2-oxo-1-(pyridin-3-yl)ethyl)acetamide], the figures for the CC50 at 5 days in “in vitro [7]” and in “in vitro [4]” (CC50 in Vero E6 cells) were less than 2 µM and less than 11 µM, respectively.
Take `C[C@H](NC(=O)[C@@H](c1cccnc1)N(C(=O)CCl)c1ccc(-n2cccc2)cc1)c1ccccc1` [Jun9-57-3R, N-(4-(1H-pyrrol-1-yl)phenyl)-2-chloro-N-((R)-2-oxo-2-(((S)-1-phenylethyl)amino)-1-(pyridin-3-yl)ethyl)acetamide]: the CC50 at 5 days in the series “in vitro [7]” was less than 2 µM; in the series “in vitro [4]” (CC50 in Vero E6 cells), less than 11 µM. Besides, on SARS-CoV-2 M^pro [3] (setting [14]), the IC50 came to 0.05 µM.
With `C[C@H](NC(=O)C(c1cnccn1)N(C(=O)CCl)c1ccc(-c2ccccc2)cc1)c1ccccc1` (stereo partly drawn) [Jun9-59-1, 2-(N-{[1,1′-biphenyl]-4-yl}-2-chioroacetamido)-N-[(1S)-1-phenylethyl]-2-(pyrazin-2-yl)acetamide], the CC50 at 5 days in the series “in vitro [7]” is less than 2 µM; in “in vitro [4]” (CC50 in Vero E6 cells), less than 11 µM.
In the case of `CC#CC(=O)N(c1ccc(-c2ccccc2)cc1)C(C(=O)N[C@@H](C)c1ccccc1)c1cccnc1` (stereo partly drawn) [Jun9-62-1, N-([1,1′-hiphenyl]-4-yl)-N-(2-oxo-2-(((S)-1-phenylethyl)amino)-1-(pyridin-3-yl)ethyl)but-2-ynamide], the CC50 at 5 days in the series “in vitro [7]” amounted to 47.8 µM; in the series “in vitro [4]” (CC50 in Vero E6 cells) it was 18 µM. Moreover, the IC50 at SARS-CoV-2 M^pro [3] (setting [14]) is 1.15 µM.
As to `C[C@H](NC(=O)[C@@H](c1cccnc1)N(C(=O)C(Br)(Br)Br)c1ccc(-c2ccccc2)cc1)c1ccccc1` [Jun9-88-6R, N-([1,1′-biphenyl]-4-yl)-2,2,2-tribromo-N-((R)-2-oxo-2-(((S)-1-phenylethyl)amino)-1-(pyridin-3-yl)ethyl)acetamide], the “inhibition of cathepsin B” value against Cathepsin B [8] was “did not show potent inhibition”. Moreover, the “inhibition of trypsin (IC50)” value with trypsin is on record as “did not show potent inhibition”. Moreover, the “mass modification (mass shift) of M^pro adduct” value (shortened to “mass modification (mass shift)”) at SARS-CoV-2 M^pro [9] is 526 Da. In addition, the IC50 worked out at 7.37 µM at Cathepsin L [10] and 0.08 µM on SARS-CoV-2 M^pro [3] (setting [14]). In addition, the “selectivity for inhibiting SARS-CoV-2 M^pro over cathepsin L” value on Cathepsin L [10] is given as 94 fold. For the same compound, the EC50 was 0.58 µM in the series with SARS-CoV-2 [1] (setting [13]), 0.92 µM on SARS-CoV-2 M^pro [5] and 2.15 µM in the series with SARS-CoV-2 [6]. Also, on cathepsin K, the “inhibition of cathepsin K” value is reported as “did not show potent inhibition”. Moreover, the kinact/KI on SARS-CoV-2 M^pro [2] was found to be 7070 M⁻¹ s⁻¹. Also, the “inhibition of calpain I” value against calpain I was “did not show potent inhibition”. The compound also gave a CC50 at 5 days in “in vitro [4]” (CC50 in Vero E6 cells) of 5.48 µM. In addition, on caspase-3, the “inhibition of caspase-3 (IC50)” value is “did not show potent inhibition”.
As to `C[C@H](NC(=O)[C@@H](c1cccnc1)N(C(=O)C(Br)Br)c1ccc(-c2ccccc2)cc1)c1ccccc1` [Jun9-89-2R], the “mass modification (mass shift)” value on SARS-CoV-2 M^pro [9] was 526 Da. Also, the IC50 against SARS-CoV-2 M^pro [3] (IC50 against SARS-CoV-2 M^pro) came out at 0.08 µM. In “in vitro [4]” (CC50 in Vero E6 cells), this compound yielded a CC50 at 5 days of 8.94 µM.
Consider `C[C@H](NC(=O)[C@@H](c1cccnc1)N(C(=O)C(Cl)(Br)Br)c1ccc(-c2ccccc2)cc1)c1ccccc1` [Jun9-89-4R, N-([1,1′-biphenyl]-4-yl)-2,2-dibromo-2-chloro-N-((R)-2-oxo-2-(((S)-1-phenylethyl)amino)-1-(pyridin-3-yl)ethyl)acetamide], for which, at SARS-CoV-2 M^pro [9], the “mass modification (mass shift)” value was 481 Da and 561 Da. Besides, at SARS-CoV-2 M^pro [3] (setting [14]), the IC50 amounted to 0.05 µM. This compound also yielded a CC50 at 5 days in “in vitro [4]” (CC50 in Vero E6 cells) of 8.41 µM.
`C[C@@H](OC(C)(C)C)[C@H](NC(=O)OCc1ccccc1)C(=O)N[C@@H](CC1CCCCC1)C(=O)N[C@H](C=O)C[C@@H]1CCNC1=O` [MPI8]: the IC50 at Cathepsin B [11] (setting [17]) was 0.23 µM; on Cathepsin B [11] (read-out: IC50 cathepsin B (recent study)), 0.0012 µM; at Cathepsin L [12] (read-out: Cathepsin L IC50) it was 0.0012 µM; on Cathepsin L [12] (read-out: IC50 cathepsin L (recent study)) it was 0.23 µM.
For PF-00835231, the values for the IC50 at Cathepsin B [11] (setting [17]) and on Cathepsin L [12] (read-out: Cathepsin L IC50) were 1.3 µM and 0.146 µM, respectively.
